Results reported in patent US20230110757A1, “METHODS FOR TREATING ANIMALS, FEED, DRINKING WATER, WASH WATER, PROCESSING EQUIPMENT, PACKAGING MATERIALS, AND FOOD PRODUCTS” (EVOQ NANO, INC., priority 2021, published 2023).

System: E. coli, KwikStik, ATCC #51813
Assay: Antibacterial efficacy test, RLU (ATP) counts post treatment
Assay type: cell-based
Protocol: An antibacterial efficacy test was carried out comparing an “Attostat” nanoparticle formulation (8 nm size) against silver nitrate and against the National Institute of Standards and Technology (NIST) Standard Nanocomposix 10 nm silver nanoparticles. The NIST nanoparticles are formed by a chemical reduction process that utilizes citrate as reducing and capping agent.
Relative Light Unit (RLU) counts were recorded at 12 hours and 24 hours post treatment. RLU measurements were carried out using a Hygiena SystemSURE Plus V.2 SN067503 RLU meter with Hygenia AquaSnap TOTAL ATP Water Test Cat #U143 Lot #153019. Culturing media was Hardy Diagnostics Buffered Peptone Water Lot #118272. Samples were prepared with the nanoparticle treatments and then diluted with the media to provide the tested concentrations. The test organism (Microbiologics, E. coli, KwikStik, ATCC #51813, Ref #0791 K, Lot #791-1-6) was incubated in fresh Buffered Peptone Water growth media for 24 hours prior to exposure to the nanoparticle treatments.

SMILES: O=[N+]([O-])[O-].[Ag+] [AgNO3 Silver Nitrate, silver nitrate]
- RLU Counts at 12 Hours Post Exposure to Nanoparticle Treatment (0.25 ppm (mg/L)): 80 RLU
- RLU as percentage of control at 12 Hours Post Treatment (0.25 ppm (mg/L)): 1.2%
- RLU Counts at 24 Hours Post Exposure to Nanoparticle Treatment (0.25 ppm (mg/L)): 25 RLU
- RLU as percentage of control at 24 Hours Post Treatment (0.25 ppm (mg/L)): 0.34%
- RLU Counts at 12 Hours Post Exposure to Nanoparticle Treatment (0.5 ppm (mg/L)): 75 RLU
- RLU as percentage of control at 12 Hours Post Treatment (0.5 ppm (mg/L)): 1.1%
- RLU Counts at 24 Hours Post Exposure to Nanoparticle Treatment (0.5 ppm (mg/L)): 46 RLU
- RLU as percentage of control at 24 Hours Post Treatment (0.5 ppm (mg/L)): 0.62%
- RLU Counts at 12 Hours Post Exposure to Nanoparticle Treatment (1.0 ppm (mg/L)): 84 RLU
- RLU as percentage of control at 12 Hours Post Treatment (1.0 ppm (mg/L)): 1.3%
- RLU Counts at 24 Hours Post Exposure to Nanoparticle Treatment (1.0 ppm (mg/L)): 30 RLU
- RLU as percentage of control at 24 Hours Post Treatment (1.0 ppm (mg/L)): 0.41%
